{
  "source": "patent US20130138221A1",
  "about": "“METHODS AND COMPOSITIONS FOR IMPROVING IMPLANT OSSEOINTEGRATION” (Novartis AG, priority 2010, published 2013)",
  "key": {"[1]": {"tested_on": "bone resorption", "conditions": "zoledronic acid versus etidronate; reference 22; cited from earlier work"}, "[2]": {"tested_on": "estrogen-deprived (OVX) Wistar rats with titanium screw implant in the left tibia", "test": "biomechanical removal torque testing of titanium screw implants in tibia of ovariectomized rats", "format": "in vivo, rat", "conditions": "4 weeks post-implantation, implant coated with 8.5 μg zoledronate and/or Antibody 1 100 mg/kg iv. weekly, FIG. 2", "protocol": "Titanium screw type implants (3 mm length, 1-1.5 mm diameter, self-cutting) were prepared by either (1) sand blasting and acid etching with no further coating, or (2) sand blasted and acid etched, then coated with 8.5 μg zoledronate. The coating was carried out by warming the implants and then dip coating with a zolendronate stearate salt and then allowing to dry at 80° C. as described for alendronic acid coating in reference 36. The […] and drying cycle was carried out 3 times. Skeletally mature virgin Wistar rats (6.5-month-old, Harlan laboratories, Switzerland) were estrogen-deprived by ovariectomy (OVX) under narcosis. Bone mineral density loss was confirmed in the proximal tibia metaphysis (4.5 mm distal from proximal end) three months post-ovariectomy (compared to intact controls) by peripheral quantitative computed tomography as described previously. The titanium screws were implanted approximately 3 mm distal to the proximal end of the left tibia under narcosis. Animals received a sand-blasted acid edged titanium implant with or without zoledronic acid coating which were prepared as above. Animals were distributed into the following groups [n=16/group and time point]: 1. OVX group receiving control implant 2. […] Intact group receiving control implant Animals were sacrificed 2 and 4 weeks post-implantation. […]"}},
  "data": [
    {"molecule": "O=P(O)(O)C(O)(Cn1ccnc1)P(=O)(O)O", "note": "[zoledronic acid, 1-hydroxy-2-(imidazol-1-yl)ethane-1,1-diphosphonic acid]", "values": [
      {"measurement": "potency relative to etidronate", "setting": "[1]", "result": "10,000 times"}
    ]},
    {"molecule": "Antibody 1: anti-sclerostin antibody with VH domain SEQ ID NO: 1 and VL domain SEQ ID NO: 2, disclosed in WO09047356 (antibody, V domains shown, Antibody Vh; Antibody Vl) VH: QVQLVESGGGLVQPGGSLRLSCAASGFTFRSHWLSWVRQAPGKGLEWVSNINYDGSSTYYADSVKGRFTISRDNSKNTLYLQMNSLRAEDTAVYYCARDTYLHFDYWGQGTLVTVSS VL: DIALTQPASVSGSPGQSITISCTGTSSDVGDINDVSWYQQHPGKAPKLMIYDVNNRPSGVSNRFSGSKSGNTASLTISGLQAEDEADYYCQSYAGSYLSEVFGGGTKLTVLGQ", "values": [
      {"measurement": "increase in removal torque versus OVX control implant (group 1)", "setting": "[2]", "result": 32, "unit": "%"}
    ]}
  ]
}
